Test results reported in patent US20170015666A1, “ENHANCER OF ZESTE HOMOLOG 2 INHIBITORS” (GLAXOSMITHKLINE INTELLECTUAL PROPERTY (NO.2) LIMITED, priority 2014, published 2017).

biological target: T1, EZH2 within the PRC2 complex (Homo sapiens, UniProt Q15910); experiment: EZH2 methyltransferase scintillation proximity assay (SPA) with PRC2 complex; assay type: biochemical; conditions: 3H-SAM, HeLa mononucleosome substrate, 30 min preincubation, 1 hour reaction
T1 construct: FLAG; made in house; host or cells: Sf9 cells
T1 sequence (Q15910 whole entry): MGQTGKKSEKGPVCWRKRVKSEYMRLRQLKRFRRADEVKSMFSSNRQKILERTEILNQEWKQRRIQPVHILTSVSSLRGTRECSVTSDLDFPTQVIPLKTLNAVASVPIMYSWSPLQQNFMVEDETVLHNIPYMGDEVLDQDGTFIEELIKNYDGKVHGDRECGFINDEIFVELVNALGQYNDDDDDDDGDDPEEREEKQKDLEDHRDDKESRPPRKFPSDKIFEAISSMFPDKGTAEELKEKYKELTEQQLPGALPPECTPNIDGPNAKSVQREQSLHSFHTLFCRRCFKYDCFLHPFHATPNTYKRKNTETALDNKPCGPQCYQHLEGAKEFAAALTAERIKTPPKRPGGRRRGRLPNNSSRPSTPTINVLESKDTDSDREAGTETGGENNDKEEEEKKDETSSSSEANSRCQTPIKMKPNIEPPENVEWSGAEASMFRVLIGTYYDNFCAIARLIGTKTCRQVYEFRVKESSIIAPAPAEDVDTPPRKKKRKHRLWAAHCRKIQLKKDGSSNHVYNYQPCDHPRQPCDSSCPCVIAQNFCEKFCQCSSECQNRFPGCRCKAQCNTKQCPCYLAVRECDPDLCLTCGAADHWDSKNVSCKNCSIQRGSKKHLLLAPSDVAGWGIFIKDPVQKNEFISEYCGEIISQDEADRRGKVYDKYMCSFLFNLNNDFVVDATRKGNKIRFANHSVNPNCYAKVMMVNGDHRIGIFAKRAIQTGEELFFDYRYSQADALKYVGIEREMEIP
T1 sequence (O75530 whole entry partner): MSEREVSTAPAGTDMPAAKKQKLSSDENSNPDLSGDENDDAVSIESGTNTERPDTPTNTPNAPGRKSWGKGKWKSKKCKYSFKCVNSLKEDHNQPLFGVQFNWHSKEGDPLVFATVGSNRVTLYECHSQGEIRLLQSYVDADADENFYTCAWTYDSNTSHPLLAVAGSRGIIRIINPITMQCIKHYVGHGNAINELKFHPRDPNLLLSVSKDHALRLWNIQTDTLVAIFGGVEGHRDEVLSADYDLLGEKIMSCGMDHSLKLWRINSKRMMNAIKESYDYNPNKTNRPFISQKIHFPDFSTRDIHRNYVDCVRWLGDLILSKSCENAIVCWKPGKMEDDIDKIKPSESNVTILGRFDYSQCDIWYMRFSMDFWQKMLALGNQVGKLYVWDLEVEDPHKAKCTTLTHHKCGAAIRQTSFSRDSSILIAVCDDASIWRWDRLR
T1 sequence (Q15022 whole entry partner): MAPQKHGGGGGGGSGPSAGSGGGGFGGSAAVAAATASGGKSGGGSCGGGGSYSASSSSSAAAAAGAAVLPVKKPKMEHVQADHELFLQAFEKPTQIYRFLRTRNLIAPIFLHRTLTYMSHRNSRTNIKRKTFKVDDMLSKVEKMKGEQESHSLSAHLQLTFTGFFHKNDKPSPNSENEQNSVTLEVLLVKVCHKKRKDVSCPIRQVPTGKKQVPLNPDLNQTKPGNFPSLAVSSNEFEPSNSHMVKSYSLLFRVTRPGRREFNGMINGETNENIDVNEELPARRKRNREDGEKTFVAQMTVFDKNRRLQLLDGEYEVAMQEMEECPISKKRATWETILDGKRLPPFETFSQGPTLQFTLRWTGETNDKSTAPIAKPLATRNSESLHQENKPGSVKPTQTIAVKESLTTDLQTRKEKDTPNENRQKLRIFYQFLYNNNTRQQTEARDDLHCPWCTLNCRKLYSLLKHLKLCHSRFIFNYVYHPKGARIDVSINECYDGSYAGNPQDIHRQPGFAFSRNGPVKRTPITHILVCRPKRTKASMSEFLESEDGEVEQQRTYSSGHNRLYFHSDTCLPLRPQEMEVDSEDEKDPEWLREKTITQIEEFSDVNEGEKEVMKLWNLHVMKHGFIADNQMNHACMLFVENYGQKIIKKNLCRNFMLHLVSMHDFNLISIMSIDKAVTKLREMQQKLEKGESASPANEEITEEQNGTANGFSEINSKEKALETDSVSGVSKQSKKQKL
T1 sequence (Q09028 whole entry partner): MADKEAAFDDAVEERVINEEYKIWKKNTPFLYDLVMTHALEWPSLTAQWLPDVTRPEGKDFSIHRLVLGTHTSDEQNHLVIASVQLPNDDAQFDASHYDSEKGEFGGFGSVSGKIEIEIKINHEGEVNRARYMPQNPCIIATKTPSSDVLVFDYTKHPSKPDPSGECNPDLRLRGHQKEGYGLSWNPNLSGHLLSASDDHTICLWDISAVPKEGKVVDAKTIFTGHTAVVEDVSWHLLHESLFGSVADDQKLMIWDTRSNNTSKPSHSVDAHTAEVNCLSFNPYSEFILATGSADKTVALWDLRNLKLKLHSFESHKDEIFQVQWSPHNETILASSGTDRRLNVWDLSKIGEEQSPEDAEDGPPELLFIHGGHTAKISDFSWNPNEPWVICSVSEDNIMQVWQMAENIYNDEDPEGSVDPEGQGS
T1 sequence (Q6ZN18 whole entry partner): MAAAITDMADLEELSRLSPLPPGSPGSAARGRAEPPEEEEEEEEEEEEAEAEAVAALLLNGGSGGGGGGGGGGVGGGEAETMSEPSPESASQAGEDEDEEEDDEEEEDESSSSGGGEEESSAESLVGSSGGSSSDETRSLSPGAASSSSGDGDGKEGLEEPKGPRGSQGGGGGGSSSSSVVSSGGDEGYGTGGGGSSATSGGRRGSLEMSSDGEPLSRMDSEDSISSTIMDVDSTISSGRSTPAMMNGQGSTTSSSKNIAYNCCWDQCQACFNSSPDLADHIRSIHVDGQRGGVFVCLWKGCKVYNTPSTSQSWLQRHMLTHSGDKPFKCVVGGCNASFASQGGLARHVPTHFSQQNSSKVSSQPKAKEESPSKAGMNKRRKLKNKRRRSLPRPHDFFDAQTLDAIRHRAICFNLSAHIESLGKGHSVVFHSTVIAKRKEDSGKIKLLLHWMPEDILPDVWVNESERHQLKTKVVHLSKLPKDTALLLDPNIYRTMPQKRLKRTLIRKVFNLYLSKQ

Row | SMILES | IC50
1 | Cc1cc2c(c(=O)[nH]1)CNC(=O)c1cc(Cl)cc3c1c(cn3C(C)C)C/C=C/CC2 [Example 1, (E)-2-chloro-4-isopropyl-12-methyl-9,10,15,16-tetrahydro-4H-pyrido[4′,3′:11,12][1]azacyclotridecino[5,4,3-cd]indole-14,17(6H,13H)-dione] | 40 nM
2 | Cc1cc2c(c(=O)[nH]1)CNC(=O)c1cc(-c3ccc(N4CCNCC4)nc3)cc3c1c(cn3C(C)C)C/C=C/CC2 [Example 4, (E)-4-isopropyl-12-methyl-2-(6-(piperazin-1-yl)pyridin-3-yl)-9,10,15,16-tetrahydro-4H-pyrido[4′,3′:11,12][1]azacyclotridecino[5,4,3-cd]indole-14,17(6H,13H)-dione] | 32 nM
3 | Cc1cc2c(c(=O)[nH]1)CNC(=O)c1cc(Cl)cc3c1c(cn3C(C)C)CCCCC2 [Example 3, 2-chloro-4-isopropyl-12-methyl-7,8,9,10,15,16-hexahydro-4H-pyrido[4′,3′:11,12][1]azacyclotridecino[5,4,3-cd]indole-14,17(6H,13H)-dione] | 500 nM
4 | Cc1cc2c(c(=O)[nH]1)CNC(=O)c1cc(Cl)cc3c1c(cn3C(C)C)C/C=C\CC2 [Example 2, (Z)-2-chloro-4-isopropyl-12-methyl-9,10,15,16-tetrahydro-4H-pyrido[4′,3′:11,12][1]azacyclotridecino[5,4,3-cd]indole-14,17(6H,13H)-dione] | 316 nM

Now from value to molecule:

Row | IC50 | SMILES
5 | 200 nM | Cc1cc2c(c(=O)[nH]1)CNC(=O)c1cc(C#CC(C)(C)O)cc3c1c(cn3C(C)C)C/C=C/CC2 [Example 6, (E)-2-(3-hydroxy-3-methylbut-1-yn-1-yl)-4-isopropyl-12-methyl-9,10,15,16-tetrahydro-4H-pyrido[4′,3′:11,12][1]azacyclotridecino[5,4,3-cd]indole-14,17(6H,13H)-dione]
6 | 158 nM | Cc1cc2c(c(=O)[nH]1)CNC(=O)c1cc(C#N)cc3c1c(cn3C(C)C)C/C=C/CC2 [Example 5, (E)-4-isopropyl-12-methyl-14,17-dioxo-6,9,10,13,14,15,16,17-octahydro-4H-pyrido[4′,3′:11,12][1]azacyclotridecino[5,4,3-cd]indole-2-carbonitrile]
